Measurements as given in PubChem BioAssay (NCI).
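Cells were grown in 96-well plates and exposed to each compound for 48 hours at five concentrations; endpoints were interpolated linearly between bracketing concentrations, or set to the highest concentration if not reached. At the GI50, growth is halved. TGI: concentration producing complete growth inhibition.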

What was measured:
Test in all cases: growth of human tumour cells (NCI), 48 h; in the data active = GI50 below about 0.43 µM; inactive = the rest
SNB-19 CNS = tested on: SNB-19 CNS
RPMI-8226 leukemia = tested on: RPMI-8226 leukemia
MDA-MB-231 breast = tested on: MDA-MB-231 breast
SK-MEL-28 melanoma = tested on: SK-MEL-28 melanoma
SK-MEL-5 melanoma = tested on: SK-MEL-5 melanoma
SF-539 CNS = tested on: SF-539 CNS
SN12C renal = tested on: SN12C renal
NCI/ADR-RES ovarian = tested on: NCI/ADR-RES ovarian
SK-MEL-2 melanoma = tested on: SK-MEL-2 melanoma
ACHN renal = tested on: ACHN renal
KM12 colon = tested on: KM12 colon
MOLT-4 leukemia = tested on: MOLT-4 leukemia
UO-31 renal = tested on: UO-31 renal
OVCAR-8 ovarian = tested on: OVCAR-8 ovarian
HS 578T breast = tested on: HS 578T breast
HOP-62 NSCLC = tested on: HOP-62 NSCLC
K-562 leukemia = tested on: K-562 leukemia
OVCAR-4 ovarian = tested on: OVCAR-4 ovarian
A498 renal = tested on: A498 renal
NCI-H226 lung = tested on: NCI-H226 lung
HT29 colon = tested on: HT29 colon
NCI-H522 lung = tested on: NCI-H522 lung
NCI-H23 lung = tested on: NCI-H23 lung
EKVX NSCLC = tested on: EKVX NSCLC
U251 CNS = tested on: U251 CNS
IGROV1 ovarian = tested on: IGROV1 ovarian
OVCAR-3 ovarian = tested on: OVCAR-3 ovarian
BT-549 breast = tested on: BT-549 breast
SK-OV-3 ovarian = tested on: SK-OV-3 ovarian
HCT-15 colon = tested on: HCT-15 colon
UACC-257 melanoma = tested on: UACC-257 melanoma
RXF 393 renal = tested on: RXF 393 renal
CAKI-1 renal = tested on: CAKI-1 renal
SF-295 CNS = tested on: SF-295 CNS
M14 melanoma = tested on: M14 melanoma
UACC-62 melanoma = tested on: UACC-62 melanoma
HCC-2998 colon = tested on: HCC-2998 colon
HCT-116 colon = tested on: HCT-116 colon
OVCAR-5 ovarian = tested on: OVCAR-5 ovarian
SW-620 colon = tested on: SW-620 colon
T-47D breast = tested on: T-47D breast
A549 NSCLC = tested on: A549 NSCLC
SF-268 CNS = tested on: SF-268 CNS
SNB-75 CNS = tested on: SNB-75 CNS
786-0 renal = tested on: 786-0 renal
LOX IMVI melanoma = tested on: LOX IMVI melanoma
COLO 205 colon = tested on: COLO 205 colon
MCF7 breast = tested on: MCF7 breast
CCRF-CEM leukemia = tested on: CCRF-CEM leukemia
PC-3 prostate = tested on: PC-3 prostate
DU-145 prostate = tested on: DU-145 prostate
TK-10 renal = tested on: TK-10 renal
HOP-92 NSCLC = tested on: HOP-92 NSCLC
MDA-MB-435 = tested on: MDA-MB-435
MALME-3M melanoma = tested on: MALME-3M melanoma
HL-60(TB) leukemia = tested on: HL-60(TB) leukemia
SR leukemia = tested on: SR leukemia
NCI-H460 lung = tested on: NCI-H460 lung

COC(=O)[C@]1(C)CCCn2c(=O)n(-c3ccccc3)c(=O)n21
> 100 µM: TGI (SNB-19 CNS) | TGI (RPMI-8226 leukemia) | TGI (MDA-MB-231 breast) | TGI (SK-MEL-28 melanoma) | TGI (SK-MEL-5 melanoma) | TGI (SF-539 CNS) | TGI (SN12C renal) | TGI (NCI/ADR-RES ovarian) | TGI (SK-MEL-2 melanoma) | TGI (ACHN renal) | TGI (KM12 colon) | TGI (MOLT-4 leukemia) | TGI (UO-31 renal) | TGI (OVCAR-8 ovarian) | TGI (HS 578T breast) | TGI (HOP-62 NSCLC) | TGI (K-562 leukemia) | TGI (OVCAR-4 ovarian) | TGI (A498 renal) | TGI (NCI-H226 lung) | TGI (HT29 colon) | TGI (NCI-H522 lung) | TGI (NCI-H23 lung) | TGI (EKVX NSCLC) | TGI (U251 CNS) | TGI (IGROV1 ovarian) | TGI (OVCAR-3 ovarian) | TGI (BT-549 breast) | TGI (SK-OV-3 ovarian) | TGI (HCT-15 colon) | TGI (UACC-257 melanoma) | TGI (RXF 393 renal) | TGI (CAKI-1 renal) | TGI (SF-295 CNS) | TGI (M14 melanoma) | TGI (UACC-62 melanoma) | TGI (HCC-2998 colon) | TGI (HCT-116 colon) | TGI (OVCAR-5 ovarian) | TGI (SW-620 colon) | TGI (T-47D breast) | TGI (A549 NSCLC) | TGI (SF-268 CNS) | TGI (SNB-75 CNS) | TGI (786-0 renal) | TGI (LOX IMVI melanoma) | TGI (COLO 205 colon) | TGI (MCF7 breast) | TGI (CCRF-CEM leukemia) | TGI (PC-3 prostate) | TGI (DU-145 prostate) | TGI (TK-10 renal) | TGI (HOP-92 NSCLC) | TGI (MDA-MB-435)

Cc1nc2sc(C(=O)Nc3cccc4ccccc34)c(N)c2cc1C(C)O (stereo unspecified)
> 50 µM: TGI (SNB-19 CNS) | TGI (RPMI-8226 leukemia) | TGI (MDA-MB-231 breast) | TGI (SK-MEL-28 melanoma) | TGI (SN12C renal) | TGI (SK-MEL-2 melanoma) | TGI (ACHN renal) | TGI (KM12 colon) | TGI (MOLT-4 leukemia) | TGI (OVCAR-8 ovarian) | TGI (HS 578T breast) | TGI (MALME-3M melanoma) | TGI (HOP-62 NSCLC) | TGI (K-562 leukemia) | TGI (OVCAR-4 ovarian) | TGI (NCI-H226 lung) | TGI (NCI-H23 lung) | TGI (EKVX NSCLC) | TGI (U251 CNS) | TGI (IGROV1 ovarian) | TGI (SK-OV-3 ovarian) | TGI (HCT-15 colon) | TGI (UACC-257 melanoma) | TGI (RXF 393 renal) | TGI (CAKI-1 renal) | TGI (SF-295 CNS) | TGI (M14 melanoma) | TGI (UACC-62 melanoma) | TGI (HCC-2998 colon) | TGI (HCT-116 colon) | TGI (OVCAR-5 ovarian) | TGI (SR leukemia) | TGI (SW-620 colon) | TGI (T-47D breast) | TGI (A549 NSCLC) | TGI (SF-268 CNS) | TGI (SNB-75 CNS) | TGI (786-0 renal) | TGI (LOX IMVI melanoma) | TGI (MCF7 breast) | TGI (CCRF-CEM leukemia) | TGI (PC-3 prostate) | TGI (DU-145 prostate) | TGI (TK-10 renal)
inactive: GI50 (MDA-MB-231 breast) 0.751 µM | GI50 (SK-MEL-28 melanoma) 0.882 µM | GI50 (OVCAR-4 ovarian) 1.51 µM | GI50 (EKVX NSCLC) 0.446 µM | GI50 (UACC-257 melanoma) > 50 µM | GI50 (HCC-2998 colon) 0.647 µM | GI50 (OVCAR-5 ovarian) 1.5 µM | GI50 (TK-10 renal) 32.2 µM | GI50 (HOP-92 NSCLC) 1.03 µM
> 48.3 µM: TGI (UO-31 renal)
0.355 µM: TGI (HL-60(TB) leukemia)
9.91 µM: TGI (NCI-H460 lung)
active: GI50 (SNB-19 CNS) 0.244 µM | GI50 (RPMI-8226 leukemia) 0.223 µM | GI50 (SK-MEL-5 melanoma) 0.185 µM | GI50 (SF-539 CNS) 0.155 µM | GI50 (SN12C renal) 0.425 µM | GI50 (NCI/ADR-RES ovarian) 0.17 µM | GI50 (SK-MEL-2 melanoma) 0.219 µM | GI50 (ACHN renal) 0.284 µM | GI50 (KM12 colon) 0.199 µM | GI50 (MOLT-4 leukemia) 0.227 µM | GI50 (UO-31 renal) 0.268 µM | GI50 (OVCAR-8 ovarian) 0.368 µM | GI50 (HS 578T breast) 0.121 µM | GI50 (MALME-3M melanoma) 0.265 µM | GI50 (HOP-62 NSCLC) 0.244 µM | GI50 (K-562 leukemia) 0.157 µM | GI50 (A498 renal) 0.0756 µM | GI50 (NCI-H226 lung) 0.28 µM | GI50 (HT29 colon) 0.191 µM | GI50 (NCI-H522 lung) 0.207 µM | GI50 (NCI-H23 lung) 0.394 µM | GI50 (U251 CNS) 0.227 µM | GI50 (IGROV1 ovarian) 0.308 µM | GI50 (OVCAR-3 ovarian) 0.155 µM | GI50 (BT-549 breast) 0.264 µM | GI50 (SK-OV-3 ovarian) 0.196 µM | GI50 (HCT-15 colon) 0.189 µM | GI50 (RXF 393 renal) 0.151 µM | GI50 (CAKI-1 renal) 0.192 µM | GI50 (SF-295 CNS) 0.171 µM | GI50 (HL-60(TB) leukemia) 0.124 µM | GI50 (M14 melanoma) 0.176 µM | GI50 (UACC-62 melanoma) 0.243 µM | GI50 (HCT-116 colon) 0.233 µM | GI50 (SR leukemia) 0.15 µM | GI50 (SW-620 colon) 0.175 µM | GI50 (T-47D breast) 0.183 µM | GI50 (A549 NSCLC) 0.345 µM | GI50 (SF-268 CNS) 0.367 µM | GI50 (SNB-75 CNS) 0.119 µM | GI50 (786-0 renal) 0.227 µM | GI50 (LOX IMVI melanoma) 0.264 µM | GI50 (COLO 205 colon) 0.234 µM | GI50 (MCF7 breast) 0.17 µM | GI50 (CCRF-CEM leukemia) 0.21 µM | GI50 (PC-3 prostate) 0.285 µM | GI50 (DU-145 prostate) 0.247 µM | GI50 (NCI-H460 lung) 0.184 µM
0.968 µM: TGI (SF-539 CNS)
7.64 µM: TGI (COLO 205 colon)
> 47 µM: TGI (HOP-92 NSCLC)
14.9 µM: TGI (HT29 colon)
> 22.4 µM: TGI (NCI-H522 lung)
5.81 µM: TGI (SK-MEL-5 melanoma)
> 13.8 µM: TGI (BT-549 breast)
1.02 µM: TGI (A498 renal)
